From publication PMC5571359, “Screening the Medicines for Malaria Venture Pathogen Box across Multiple Pathogens Reclassifies Starting Points for Open-Source Drug Discovery” (Antimicrobial Agents and Chemotherapy, 2017)
Read-outs that look alike come from different tables or passages of the source.

Tests used:
[1] = tested on: NF54-pfs16-LUC-GFP stage IV gametocytes; experiment: Plasmodium falciparum late stage gametocyte (LSG) image-based assay; type: cell-based; details: for IC50: Plasmodium falciparum
[2] = tested on: P. falciparum ABS; details: cited from earlier work; for EC50: ChEMBL Data
[3] = tested on: P. falciparum stage V gametocytes; details: cited from earlier work; for IC50 / PF stage V GAMS PBox IC50 µM: stage V gametocytes; for IC50: read-out: PF stage V GAMS PBox IC50; for activity against gametocytes (stage V), PBox supporting information: ref Pbox supporting information
[4] = tested on: liver stage; details: cited from earlier work
[5] = tested on: HepG2; details: read-out: HepG2 PBox CC50 µM, cited from earlier work
[6] = tested on: Plasmodium falciparum 3D7 asexual blood stage; experiment: microbe, parasite or virus in culture
[7] = tested on: HEK293 cells; experiment: HEK293 resazurin cell cytotoxicity assay; details: Homo sapiens; for inhibition at 20 µM: HEK293, read-out: HEK % Inhibition 20uM/IC50 Discovery Biology
[8] = tested on: L. donovani MHOM/IN/80/DD8 intracellular amastigotes; experiment: Leishmania donovani intracellular amastigote assay in THP-1 cells; type: cell-based; details: Leishmania donovani, THP-1, intracellular amastigotes
[9] = tested on: T. cruzi intracellular amastigotes; experiment: Intracellular anti-Trypanosoma cruzi image-based assay (amastigotes); type: cell-based; details: Trypanosoma cruzi; intracellular amastigotes, Discovery Biology; read-out: T cruzi Discovery Biology IC50
[10] = tested on: T. b. brucei 427 bloodstream trypanosomes; experiment: T. b. brucei resazurin viability assay; type: cell-based, Trypanosoma brucei brucei; details: Trypanosoma brucei
[11] = NF54, read-out: Pf Stage IV GAMS Discovery Biology IC50 µM, stage IV gametocytes, Discovery Biology
[12] = TCMDC, read-out: TCMDC (ref 93) EX50
[13] = Pf 3D7, ref Pathogen Box supporting information, read-out: Pf 3D7 Pbox IC50
[14] = ref Pathogen Box supporting information
[15] = liver stage, ref Pathogen Box supporting information, read-out: LIVER STAGE Pbox IC50
[16] = HepG2 CC50, ref Pathogen Box supporting information
[17] = 3D7, read-out: Pf 3D7 Discovery Biology IC50 µM, P. falciparum 3D7 asexual blood stage, Discovery Biology
[18] = NF54, read-out: Pf Stage IV GAMS Discovery Biology IC50 µM, stage IV gametocytes
[19] = P. falciparum 3D7, ref PBox supporting information, read-out: Pf 3D7 Pbox IC50
[20] = ref PBox supporting information
[21] = ref Pbox supporting information
[22] = 3D7, read-out: Pf 3D7 Discovery Biology IC50 µM, P. falciparum 3D7 asexual blood stage
[23] = HEK293, read-out: HEK % Inhibition 20uM/IC50 Discovery Biology (IA)
[24] = PBox compounds, read-out: IC50 T. brucei brucei (Discovery Biology)
[25] = Discovery Biology, some values carry an asterisk, read-out: L, donovani Discovery Biology IC50 µM
[26] = HEK293, read-out: HEK % Discovery Biology IC50 uM
[27] = read-out: T b.brucei Discovery Biology IC50
[28] = NITD, read-out: NITD (ref 94) EC50

## CCN(CC)S(=O)(=O)c1ccc(Cl)c(C(=O)Nc2ccc3nc(C)sc3c2)c1 [MMV019721]
[1]; [11]
  IC50: 0.79 µM
[2]; [12]
  EC50: 0.8 µM
[2]; [13]
  IC50: 0.5 µM
[3]; [14]
  IC50: 3.91 µM
[4]; [15]
  IC50: 1.31 µM
[5]; [16]
  CC50: > 10 µM
[6]; [17]
  IC50: 0.78 µM

## NS(=O)(=O)c1cccc(-c2ccc3ncc(N4CCOCC4)nc3c2)c1 [MMV023860]
[1]; [11]
  IC50: 2.13 µM
[2]; [12]
  EC50: 0.99 µM
[2]; [13]
  IC50: 1.5 µM
[3]; [14]
  IC50: 1.33 µM
[4]; [15]
  IC50: 1.82 µM
[5]; [16]
  CC50: > 10 µM
[6]; [17]
  IC50: 0.89 µM
[7]
  inhibition at 20 µM: 40%

## COc1ccc(-c2cnc3ccc(N4CCCC4)nn23)cc1OC [MMV023985]
[1]; [11]
  IC50: 5.83 µM
[2]; [12]
  EC50: 0.77 µM
[2]; [13]
  IC50: 0.7 µM
[3]; [14]
  IC50: 0.41 µM
[4]; [15]
  IC50: 0.63 µM
[5]; [16]
  CC50: > 10 µM
[6]; [17]
  IC50: 1.99 µM

## CCn1ncc2c(NC3CCOCC3)c(CNC(=O)c3ccnn3C)c(C)nc21 [MMV026356]
[1]; [18]
  IC50: 0.74 µM
[2]; P. falciparum, read-out: TCMDC (ref 93) EX50
  EC50: 0.53 µM
[2]; [19]
  IC50: 0.28 µM
[3]; [20]
  IC50: 0.24 µM
[4]; [21]
  IC50: 1.6 µM
[5]; [20]
  CC50: > 10 µM
[6]; [22]
  IC50: 0.27 µM
[7]; [23]
  IC50: > 20 µM

## COc1cc(-c2cc(-c3ccc(S(C)(=O)=O)cc3)cnc2N)ccc1O [MMV010576]
[1]; [11]
  IC50: 0.15 µM
[8]; PBox compounds, read-out: IC50 L. donovani (Discovery Biology)
  IC50: 5.18 µM
[2]; [12]
  EC50: 0.1 µM
[2]; [13]
  IC50: 0.1 µM
[3]; [14]
  IC50: 0.066 µM
[4]; [15]
  IC50: 2.52 µM
[5]; [16]
  CC50: > 10 µM
[6]; [17]
  IC50: 0.07 µM

## O=C(Nc1ccc(N2CCNCC2)cc1)c1ccn2ncc(-c3cccc(Cl)c3)c2n1 [MMV022478]
[1]
  activity in the Discovery Biology stage IV gametocyte (LSG) assay: demonstrate activity
[1]; [11]
  IC50: 2.89 µM
[9]
  IC50: 4.7 µM
[10]; [24]
  IC50: 1.45 µM
[8]; [25]
  IC50: 5.02 µM
[2]; [12]
  EC50: 0.92 µM
[2]; [13]
  IC50: 0.78 µM
[3]
  activity against gametocytes (stage V), PBox supporting information: demonstrate activity
[3]; [14]
  IC50: 0.62 µM
[4]; [15]
  IC50: > 10 µM
[5]; [16]
  CC50: > 10 µM
[6]; [17]
  IC50: 1.29 µM
[7]; [26]
  IC50: 8.11 µM

## COc1ccc(-c2cnc3ccc(NCc4ccc(S(N)(=O)=O)cc4)nn23)cn1 [MMV010545]
[1]; [11]
  IC50: 1.17 µM
[2]; [12]
  EC50: 0.87 µM
[2]; [13]
  IC50: 0.49 µM
[3]; [14]
  IC50: 1.03 µM
[4]; [15]
  IC50: 6.8 µM
[5]; [16]
  CC50: > 10 µM
[6]; [17]
  IC50: 0.58 µM

## CN1CCC(NCc2cccc(-c3ccc(S(=O)(=O)NCc4ccccc4)cc3)c2)CC1 [MMV022029]
[1]; [11]
  IC50: 4.04 µM
[10]; [24]
  IC50: 2.38 µM
[8]; [25]
  IC50: 5.03 µM
[2]; [12]
  EC50: 0.69 µM
[2]; [13]
  IC50: 0.82 µM
[3]; [14]
  IC50: 1.42 µM
[4]; [15]
  IC50: 4.55 µM
[5]; [16]
  CC50: > 10 µM
[6]; [17]
  IC50: 0.69 µM
[7]
  inhibition at 20 µM: 100%

## N#Cc1ccc(-c2cnc(N)c(-c3ccc(C(N)=O)cc3)n2)cc1 [MMV085499]
[1]; [18]
  IC50: 0.55 µM
[2]; P. falciparum, read-out: NITD (ref 94) EC50
  EC50: 0.06 µM
[2]; [19]
  IC50: 0.095 µM
[3]; [20]
  IC50: 0.14 µM
[4]; [21]
  IC50: 0.28 µM
[5]; [20]
  CC50: > 10 µM
[6]; [22]
  IC50: 0.19 µM
[7]; [23]
  IC50: > 20 µM

## Cc1cc(Nc2ccc(C(F)(F)F)cc2)n2ccnc2n1 [MMV011229]
[1]
  activity in the Discovery Biology stage IV gametocyte (LSG) assay: did not find this compound to be active
[2]; ref Pbox supporting information, read-out: ABS activity, PBox supporting information
  IC50: 0.38 µM
[3]
  activity against gametocytes (stage V), PBox supporting information: ktba
[4]; [21]
  activity against liver stage, PBox supporting information: ktba

## CCCn1c(NC(=O)c2ccc3ccccc3n2)nc2ccccc21 [MMV1030799]
[1]
  activity in the Discovery Biology stage IV gametocyte (LSG) assay: demonstrate activity
[1]; [18]
  IC50: 2.5 µM
[2]; [19]
  IC50: > 2 µM
[3]
  activity against gametocytes (stage V), PBox supporting information: demonstrate activity
[3]; [20]
  IC50: 0.56 µM
[6]; [22]
  IC50: 2.59 µM
[7]; [23]
  IC50: > 20 µM

## O=C(NCCN1CCCC1)c1cc(NCCN2CCOCC2)nc2ccc(Cl)cc12 [MMV634140]
[1]; [18]
  IC50: 0.39 µM
[2]; [19]
  IC50: 0.1 µM
[3]; [20]
  PF stage V GAMS PBox IC50 µM: KTBA
[4]; [21]
  LIVER STAGE Pbox IC50 µM: KTBA
[6]; [22]
  IC50: 0.09 µM
[7]; [23]
  IC50: > 20 µM

## Cc1ccc2c(c1C)NC(=O)C21NN=C(c2ccccc2)S1 (stereo not drawn) [MMV019189]
[1]; [11]
  IC50: 1.97 µM
[10]; [27]
  IC50: 4.68 µM
[2]; [12]
  EC50: 0.75 µM
[2]; [13]
  IC50: 1.13 µM
[3]; [14]
  IC50: 0.9 µM
[4]; [15]
  IC50: 0.88 µM
[5]; [16]
  CC50: > 7.5 µM
[6]; [17]
  IC50: 2.28 µM

## CN(C)c1cc(NC(=O)Nc2ccccc2)c2ccccc2n1 [MMV006901]
[1]
  activity in the Discovery Biology stage IV gametocyte (LSG) assay: only moderately active
[10]; [24]
  IC50: 3.36 µM
[2]; [28]
  EC50: 0.15 µM
[2]; [12]
  EC50: 0.41 µM
[2]; [13]
  IC50: 0.6 µM
[3]; [14]
  IC50: 3.13 µM
[4]; [15]
  IC50: > 10 µM
[5]; [16]
  CC50: > 10 µM

## COc1cccc(CC(=O)N2CCC(n3c(C)nc4ccc(F)cc43)CC2)c1 [MMV020081]
[1]
  activity in the Discovery Biology stage IV gametocyte (LSG) assay: demonstrate activity
[1]; [11]
  IC50: 0.68 µM
[2]; [12]
  EC50: 0.91 µM
[2]; [13]
  IC50: 0.24 µM
[3]
  activity against gametocytes (stage V), PBox supporting information: demonstrate activity
[3]; [14]
  IC50: 0.31 µM
[6]; [17]
  IC50: 0.21 µM

## Nc1nccc2ccc(-c3ccc4nccn4c3)cc12 [MMV023233]
[1]
  activity in the Discovery Biology stage IV gametocyte (LSG) assay: demonstrate activity
[1]; [11]
  IC50: 3.08 µM
[10]; [27]
  IC50: 3.29 µM
[2]; [12]
  EC50: 0.1 µM
[2]; [13]
  IC50: 0.16 µM
[3]
  activity against gametocytes (stage V), PBox supporting information: demonstrate activity
[3]; [14]
  IC50: 0.4 µM
[6]; [17]
  IC50: 0.11 µM
[7]
  inhibition at 20 µM: 74%

## O=C(Nc1ccccc1)c1ccc(-c2cc3ccncc3cc2OC2CCNCC2)s1 [MMV024035]
[1]; [11]
  IC50: 4.48 µM
[10]; [27]
  IC50: 2.72 µM
[2]; [12]
  EC50: 0.65 µM
[2]; [13]
  IC50: 0.57 µM
[3]; [14]
  IC50: 2.28 µM
[4]; [15]
  IC50: 7.37 µM
[5]; [16]
  CC50: > 7.5 µM
[6]; [17]
  IC50: 0.31 µM
[7]; [26]
  IC50: 6.67 µM

## Cc1ccc(NC(=O)c2nc[nH]c2C(=O)Nc2nc3ccccc3[nH]2)c(C)c1 [MMV011903]
[2]; [28]
  EC50: 0.73 µM
[2]; [13]
  IC50: 0.36 µM
[3]; [14]
  IC50: > 8.3 µM
[4]; [15]
  IC50: > 10 µM
[5]; [16]
  CC50: > 10 µM

## O=C(NCCN1CCCC1)c1cc(NCCCCN2CCC(F)(F)CC2)nc2ccc(Cl)cc12 [MMV667494]
[1]; [18]
  IC50: 0.12 µM
[2]; [19]
  IC50: 0.007 µM
[3]; [20]
  PF stage V GAMS PBox IC50 µM: KTBA
[4]; [21]
  LIVER STAGE Pbox IC50 µM: KTBA
[6]; 3D7, read-out: Pf 3D7 Discovery Biology IC50, P. falciparum 3D7 asexual blood stage, nM
  IC50: < 0.01 µM
[7]; [23]
  IC50: > 20 µM

## c1ccc(-c2cc(N3CCCCC3)c3ccccc3n2)nc1 [MMV560185]
[1]
  activity in the Discovery Biology stage IV gametocyte (LSG) assay: demonstrate activity
[1]; [18]
  IC50: 0.71 µM
[2]; [19]
  IC50: > 2 µM
[3]
  activity against gametocytes (stage V), PBox supporting information: demonstrate activity
[3]; [20]
  IC50: 0.51 µM
[4]; [21]
  IC50: 9.7 µM
[5]; [20]
  CC50: > 10 µM
[7]; [23]
  IC50: > 20 µM
